Molecules are shown by their SMILES.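 Where inhibition never reached the appropriate level, the endpoint shown equals the highest concentration tested. Otherwise, values were interpolated linearly from a five-concentration, 48-hour dose response in 96-well plates. Here, GI50 denotes the concentration required for 50% inhibition of growth. The concentration for full growth arrest is given as TGI.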

Our source for the TGI and GI50 values is PubChem BioAssay (NCI).

Common to all, as to assay: growth of human tumour cells (NCI), 48 h
In assay [1] the test system is A549 NSCLC.
Assay [2] deals with DMS 273 small cell lung.
The subject of assay [3] is HOP-92 NSCLC.
The test system of assay [4] is SNB-78 CNS.
Assay [5] deals with SW-620 colon.
In assay [6] the test system is ACHN renal.
The subject of assay [7] is HCT-15 colon.
Assay [8] deals with SK-MEL-28 melanoma.
The subject of assay [9] is SK-OV-3 ovarian.
Assay [10] concerns TK-10 renal.

Take `CN(/C(=N\O)c1ccccc1)c1ccccc1`: the TGI in assay [1] was greater than 100 µM; in assay [2], 50.7 µM; in assay [3] it was 62.5 µM; in assay [4], 88.7 µM; in assay [5], greater than 100 µM.
As for `N=C(N)Cn1cnc2ccccc21`, the TGI in assay [1], in assay [6], in [7], in assay [8], in [9] and in assay [4] was greater than 100 µM in each case. For the same molecule, the TGI in assay [5] and in assay [10] was greater than 100 µM in each case.
As for `CCC[CH2][Sn]1([CH2]CCC)[O]CC([CH2][Sn]([c]2ccccc2)([c]2ccccc2)[c]2ccccc2)[O]1` (stereo not drawn), the GI50 in [1] was 16.5 µM; in assay [6], 17 µM; in [7], 13.2 µM; in assay [3], 11.9 µM; in [8], 5.95 µM; in assay [9] it was 19.1 µM. Moreover, the values for the GI50 in assay [4], in assay [5] and in assay [10] were 10.2 µM, 3.9 µM and 13.8 µM, respectively. In addition, the TGI in assay [1] is 31.4 µM; in assay [6], 32.5 µM; in assay [7], 26.4 µM; in assay [3], 25.7 µM; in assay [8] it was 20.2 µM; in assay [9] it was 33.2 µM. Further, the TGI amounted to 26.4 µM in [4], 15.7 µM in assay [5] and 27 µM in [10].
Regarding `CC(=O)[CH-]C(=O)c1ccccc1.CC(=O)[CH-]C(=O)c1ccccc1.CC[O-].O=C1C=C([O-])C(=O)c2ccccc21.[Ti+4]`, the GI50 in assay [1] is 46.3 µM; in assay [6] it was 66.5 µM; in assay [2], 96.4 µM; in [7] it was 56.2 µM; in assay [3] it was 26.2 µM; in assay [8] it was greater than 100 µM. The GI50 in assay [9] is 70.8 µM; in assay [5] it was 33 µM. Besides, the TGI is greater than 100 µM in [1]; greater than 100 µM in assay [6]; greater than 100 µM in assay [2]; greater than 100 µM in assay [7]; 82.8 µM in assay [3]; greater than 100 µM in assay [8]. Besides, the TGI in assay [9] and in assay [5] was greater than 100 µM in each case.
In the case of `CCCCCC/C=C/CCCCCCCc1cccc(O)c1C(=O)O`, the TGI is greater than 100 µM in assay [1]; greater than 100 µM in assay [6]; greater than 100 µM in assay [2]; greater than 100 µM in [7]; greater than 100 µM in assay [8]; 99.8 µM in assay [9]. Also, the TGI in assay [4], in assay [5] and in [10] was greater than 100 µM each time.
For `CCN1CCC(O)(c2ccc(Cl)c(Cl)c2)C(C(=O)c2ccc(Cl)c(Cl)c2)C1` (stereo not drawn), the TGI in [1] was determined as 40.7 µM; in assay [6], 28.3 µM; in assay [2] it was 34 µM; in assay [7], 36.6 µM; in [3], 29 µM; in assay [8], 33 µM. Also, the values for the TGI in [9], in assay [5] and in [10] were 32.8 µM, 38.7 µM and 30.5 µM, respectively.
As for `C#CCOc1cccc(Nc2ncnc3c2ncn3C2CCN(C(=O)CCl)C2)c1` (stereo not drawn), the GI50 in assay [1] was greater than 100 µM; in assay [6] it was 17.7 µM; in [7] it was 16.5 µM; in [3] it was 19.1 µM; in assay [8] it was 23 µM; in assay [9], greater than 100 µM. Further, the GI50 is 18.4 µM in [5] and 17.1 µM in [10]. Moreover, the TGI in assay [1] was greater than 100 µM; in [6], 31.8 µM; in [7] it was 39.6 µM; in [3], 39.6 µM; in [8] it was 53.9 µM; in [9], greater than 100 µM. In addition, the TGI in assay [5] came out at 39.1 µM; in assay [10], 31.7 µM.
With `CN(C)CCN1C(=O)c2cccc3c(-c4ccc5ncn(C6CCCCC6)c5c4)ccc(c23)C1=O`, the GI50 was 1.12 µM in assay [1]; 0.539 µM in [6]; 1.34 µM in assay [7]; 1.79 µM in assay [3]; 2.18 µM in [8]; 2.59 µM in assay [9]. For the same molecule, the GI50 is 1.06 µM in assay [5] and 2.14 µM in [10]. Moreover, the TGI in assay [1] is 2.56 µM; in assay [6], 2.36 µM; in [7], 10.6 µM; in [3], 6.45 µM; in assay [8], 5.66 µM; in assay [9], 8.64 µM. For the same molecule, the TGI in assay [5] was 11 µM; in assay [10] it was 12.6 µM.
Take `CC(C)(C)n1cc(-c2ccnc(NCCCNS(=O)(=O)c3ccc(Cl)cc3)c2)c(-c2cccc(O)c2)n1`: the GI50 in assay [1] is 1.97 µM; in [6], 1.97 µM; in assay [7], 1.52 µM; in assay [3] it was 1.49 µM; in [8], 1.57 µM; in assay [9], 2.35 µM. For the same molecule, the GI50 was 1.77 µM in assay [5] and 2.38 µM in assay [10]. Besides, the TGI in assay [1] is 4.97 µM; in assay [6], 4.48 µM; in assay [7] it was 3.35 µM; in assay [3], 3.33 µM; in [8] it was 3.06 µM; in assay [9], 6.08 µM. Also, the results for the TGI in assay [5] and in assay [10] were 3.56 µM and 5.93 µM, respectively.
As for `NC(=O)C12CCC1C1CCCCC12N1CCOCC1` (stereo not drawn), the TGI in [1], in assay [6], in [7], in assay [3], in assay [8] and in assay [9] was greater than 100 µM in each case. In addition, the TGI in assay [4], in assay [5] and in assay [10] was greater than 100 µM each time.
For the molecule `O=C(O)CCc1nc(-c2ccccc2)c(-c2ccccc2)o1`, the TGI in assay [1], in assay [6], in assay [7], in assay [3], in assay [8] and in [9] was greater than 100 µM in each case. Besides, the TGI in [5] and in [10] was greater than 100 µM each time.
Consider `CCOC(CN(C)C(=O)OCC(Cl)(Cl)Cl)OCC`, for which the TGI in assay [1], in assay [6], in [7], in [3], in [8] and in [9] was greater than 100 µM throughout. In addition, the TGI in [5] and in assay [10] was greater than 100 µM in each case.
